Patent US11655235B2, “Pyrrolidine and piperidine compounds” (YUHAN CORPORATION, priority 2019, dated 2023)
Read-outs that look alike come from different tables or passages of the source.

Columns and labels:
Format in all cases: biochemical
Recombinant human FAP = biological target: T1, Recombinant human FAP (Homo sapiens, UniProt Q12884); assay: FAP inhibition, fluorogenic substrate Z-Gly-Pro-AMC
T1 construct: purchased R&D systems
T1 sequence (Q12884 1-760): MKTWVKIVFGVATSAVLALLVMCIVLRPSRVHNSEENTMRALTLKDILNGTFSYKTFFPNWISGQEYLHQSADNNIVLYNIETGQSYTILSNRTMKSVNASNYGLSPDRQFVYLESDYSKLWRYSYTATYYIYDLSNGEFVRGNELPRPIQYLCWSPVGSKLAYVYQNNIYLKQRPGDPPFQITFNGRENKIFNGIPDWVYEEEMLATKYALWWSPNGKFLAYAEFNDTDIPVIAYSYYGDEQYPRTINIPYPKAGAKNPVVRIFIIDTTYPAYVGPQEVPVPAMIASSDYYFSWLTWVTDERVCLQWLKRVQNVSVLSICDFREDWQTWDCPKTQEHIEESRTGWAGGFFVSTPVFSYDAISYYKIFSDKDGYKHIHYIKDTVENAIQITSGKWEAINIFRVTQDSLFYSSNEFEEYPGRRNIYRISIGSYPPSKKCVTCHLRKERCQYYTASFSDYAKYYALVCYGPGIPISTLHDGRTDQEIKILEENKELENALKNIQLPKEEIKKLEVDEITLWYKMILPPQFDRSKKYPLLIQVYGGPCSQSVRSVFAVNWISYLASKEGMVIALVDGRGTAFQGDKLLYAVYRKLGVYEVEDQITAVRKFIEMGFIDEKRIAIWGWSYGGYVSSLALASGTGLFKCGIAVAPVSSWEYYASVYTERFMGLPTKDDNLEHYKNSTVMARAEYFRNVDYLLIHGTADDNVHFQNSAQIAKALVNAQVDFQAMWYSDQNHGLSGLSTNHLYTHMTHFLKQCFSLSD
Method in brief: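 Recombinant human FAP, 10 ng per reaction, in 50 mM Tris pH 7.5 with 1 M NaCl and 1 mg/ml BSA at 25° C; substrate Z-Gly-Pro-AMC, ≤0.1% DMSO. AMC fluorescence read at ex 380/em 460 nm; % signal-rate decrease vs no-inhibitor control, 8-point curves fitted to a four-parameter logistic for IC50.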

recombinant human PREP = biological target: T2, recombinant human PREP (Homo sapiens, UniProt P48147); assay: PREP inhibition, fluorogenic substrate Z-Gly-Pro-AMC; details: Inhibitory Activity (IC50, nM) PREP
T2 construct: purchased R&D System
T2 sequence (P48147 1-710): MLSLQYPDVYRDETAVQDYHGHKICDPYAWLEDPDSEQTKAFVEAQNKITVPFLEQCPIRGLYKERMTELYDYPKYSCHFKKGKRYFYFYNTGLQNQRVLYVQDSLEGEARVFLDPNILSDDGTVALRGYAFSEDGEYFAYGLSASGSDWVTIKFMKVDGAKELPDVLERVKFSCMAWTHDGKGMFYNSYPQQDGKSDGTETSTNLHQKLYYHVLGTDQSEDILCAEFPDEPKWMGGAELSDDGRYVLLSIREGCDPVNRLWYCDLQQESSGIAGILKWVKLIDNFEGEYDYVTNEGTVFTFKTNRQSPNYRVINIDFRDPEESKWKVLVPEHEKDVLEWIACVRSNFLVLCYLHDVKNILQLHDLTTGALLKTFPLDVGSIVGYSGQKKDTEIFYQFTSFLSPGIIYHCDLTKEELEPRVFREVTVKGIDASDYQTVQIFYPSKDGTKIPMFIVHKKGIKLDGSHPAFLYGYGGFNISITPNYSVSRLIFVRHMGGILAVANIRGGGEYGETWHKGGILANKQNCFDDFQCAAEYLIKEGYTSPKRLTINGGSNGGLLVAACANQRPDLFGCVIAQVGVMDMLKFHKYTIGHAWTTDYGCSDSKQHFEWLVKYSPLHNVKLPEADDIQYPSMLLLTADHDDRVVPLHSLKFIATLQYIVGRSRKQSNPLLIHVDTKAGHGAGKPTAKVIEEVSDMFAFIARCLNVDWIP
Method in brief: (§1)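 Enzyme per reaction: 50 ng DPP9, 20 ng DPP8, 10 ng each DPP7 and PREP. Compounds were serially diluted (8 points, up to 0.5% DMSO) and incubated at 25 °C.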

recombinant human DPP7 = biological target: T3, recombinant human DPP7 (Homo sapiens, UniProt Q9UHL4); assay: DPP7 inhibition, fluorogenic substrate Lys-Pro-AMC
T3 construct: purchased R&D Systems
Method in brief: as §1

DPP4 = DPP4 (Homo sapiens, UniProt P27487); assay: DPP4 inhibition, fluorogenic substrate H-Gly-Pro-AMC; parameters: purchased R&D Systems; details: for inhibition at 1 µM: read-out: hDPP4 inhibition % at 1 μM
recombinant human DPP9 = biological target: T4, recombinant human DPP9 (Homo sapiens, UniProt Q86TI2); assay: DPP9 inhibition, fluorogenic substrate H-Gly-Pro-AMC
T4 construct: purchased R&D Systems
Method in brief: as §1

recombinant human DPP8 = biological target: T5, recombinant human DPP8 (Homo sapiens, UniProt Q6V1X1); assay: DPP8 inhibition, fluorogenic substrate Z-Ala-Pro-AMC
T5 construct: purchased PBS Bioscience
Method in brief: as §1

[1] = recombinant human FAP, substrate Z-Gly-Pro-AMC
[2] = 25° C., Z-Gly-Pro-AMC substrate
[3] = 25° C., H-Gly-Pro-AMC substrate
[4] = 25° C., Z-Ala-Pro-AMC substrate

T5 sequence (Q6V1X1 whole entry): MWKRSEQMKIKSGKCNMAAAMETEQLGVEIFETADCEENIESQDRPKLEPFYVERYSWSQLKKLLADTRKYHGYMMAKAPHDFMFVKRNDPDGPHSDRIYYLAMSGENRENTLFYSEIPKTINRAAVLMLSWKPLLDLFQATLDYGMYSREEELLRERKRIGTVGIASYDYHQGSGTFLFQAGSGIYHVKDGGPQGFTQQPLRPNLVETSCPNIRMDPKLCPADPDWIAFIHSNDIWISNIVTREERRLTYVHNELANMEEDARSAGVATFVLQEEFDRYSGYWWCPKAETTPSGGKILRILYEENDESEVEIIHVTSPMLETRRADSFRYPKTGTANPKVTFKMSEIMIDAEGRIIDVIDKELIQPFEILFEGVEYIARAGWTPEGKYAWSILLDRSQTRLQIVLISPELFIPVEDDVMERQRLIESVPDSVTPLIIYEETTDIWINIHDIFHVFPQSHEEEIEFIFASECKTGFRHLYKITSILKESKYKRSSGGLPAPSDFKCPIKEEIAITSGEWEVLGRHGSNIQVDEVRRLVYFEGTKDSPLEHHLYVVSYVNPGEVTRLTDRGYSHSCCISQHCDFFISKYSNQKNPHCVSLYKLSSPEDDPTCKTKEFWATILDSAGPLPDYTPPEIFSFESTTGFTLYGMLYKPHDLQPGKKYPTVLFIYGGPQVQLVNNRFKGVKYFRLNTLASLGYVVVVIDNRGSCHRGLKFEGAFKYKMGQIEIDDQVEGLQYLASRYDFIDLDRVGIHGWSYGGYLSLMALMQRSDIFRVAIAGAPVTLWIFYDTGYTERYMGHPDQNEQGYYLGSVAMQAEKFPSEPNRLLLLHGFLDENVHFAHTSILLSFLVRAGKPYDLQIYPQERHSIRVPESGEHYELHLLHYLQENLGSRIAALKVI
T4 sequence (Q86TI2 whole entry): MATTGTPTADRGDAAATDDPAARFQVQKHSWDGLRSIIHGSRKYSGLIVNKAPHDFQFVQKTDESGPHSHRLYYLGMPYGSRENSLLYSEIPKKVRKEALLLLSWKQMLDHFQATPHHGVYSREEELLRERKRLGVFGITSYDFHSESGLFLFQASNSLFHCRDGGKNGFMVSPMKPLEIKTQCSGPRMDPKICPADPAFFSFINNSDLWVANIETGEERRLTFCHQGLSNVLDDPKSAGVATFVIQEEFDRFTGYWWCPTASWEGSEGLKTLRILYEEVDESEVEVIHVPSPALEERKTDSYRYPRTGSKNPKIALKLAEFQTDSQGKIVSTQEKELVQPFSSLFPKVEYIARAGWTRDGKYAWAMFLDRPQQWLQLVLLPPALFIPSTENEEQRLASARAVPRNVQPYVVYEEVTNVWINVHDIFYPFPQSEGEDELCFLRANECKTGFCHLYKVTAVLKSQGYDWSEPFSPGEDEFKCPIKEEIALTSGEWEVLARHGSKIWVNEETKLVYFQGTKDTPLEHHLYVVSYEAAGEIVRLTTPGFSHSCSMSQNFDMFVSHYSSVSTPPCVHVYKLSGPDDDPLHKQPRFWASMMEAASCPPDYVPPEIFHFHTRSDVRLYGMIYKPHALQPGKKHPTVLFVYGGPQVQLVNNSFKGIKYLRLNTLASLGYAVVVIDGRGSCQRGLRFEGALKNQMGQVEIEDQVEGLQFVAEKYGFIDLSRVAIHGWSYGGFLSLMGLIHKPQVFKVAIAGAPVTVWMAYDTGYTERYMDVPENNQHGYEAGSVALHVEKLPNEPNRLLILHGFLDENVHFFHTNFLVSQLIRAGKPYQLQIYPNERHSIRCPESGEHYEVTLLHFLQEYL
Chain of DPP4 (P27487 whole entry): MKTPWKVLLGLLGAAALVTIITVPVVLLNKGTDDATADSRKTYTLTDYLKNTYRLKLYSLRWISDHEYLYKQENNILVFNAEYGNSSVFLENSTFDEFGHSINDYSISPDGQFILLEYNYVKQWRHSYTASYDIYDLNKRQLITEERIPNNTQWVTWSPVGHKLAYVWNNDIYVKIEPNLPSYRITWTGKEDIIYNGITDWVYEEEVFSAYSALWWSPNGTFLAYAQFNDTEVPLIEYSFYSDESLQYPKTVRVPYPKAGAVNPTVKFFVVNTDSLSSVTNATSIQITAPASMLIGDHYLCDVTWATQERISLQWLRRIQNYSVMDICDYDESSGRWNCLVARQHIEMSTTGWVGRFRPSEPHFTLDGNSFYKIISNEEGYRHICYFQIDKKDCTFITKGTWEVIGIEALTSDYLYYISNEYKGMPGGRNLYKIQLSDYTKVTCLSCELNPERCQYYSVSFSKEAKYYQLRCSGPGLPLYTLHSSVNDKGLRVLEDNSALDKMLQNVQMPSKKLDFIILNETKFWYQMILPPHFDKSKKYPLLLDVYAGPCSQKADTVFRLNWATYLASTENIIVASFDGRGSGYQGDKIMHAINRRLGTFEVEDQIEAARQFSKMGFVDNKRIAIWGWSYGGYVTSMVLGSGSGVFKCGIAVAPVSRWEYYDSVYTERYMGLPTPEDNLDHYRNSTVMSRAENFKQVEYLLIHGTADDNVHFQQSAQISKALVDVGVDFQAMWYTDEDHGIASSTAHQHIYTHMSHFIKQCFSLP

Row | SMILES | IC50 (Recombinant human FAP; [1]) [nM] | IC50 (recombinant human PREP; recombinant human PREP) [nM] | IC50 (recombinant human DPP7; recombinant human DPP7) [nM] | IC50 (DPP4; recombinant human DPP4) [nM] | IC50 (recombinant human DPP9; recombinant human DPP9) [nM] | IC50 (recombinant human DPP8; recombinant human DPP8) [nM] | IC50 (Recombinant human FAP; [2]) [nM] | IC50 (recombinant human PREP; [2]) [nM] | IC50 (recombinant human DPP7) [nM] | IC50 (DPP4; [3]) [nM] | IC50 (recombinant human DPP9; [3]) [nM] | IC50 (recombinant human DPP8; [4]) [nM] | hDPP4 inhibition % at 1 μM (DPP4; at 1 μM) | inhibition at 1 µM (DPP4) [%]
1 | N#C[C@@H]1C[C@H](F)CN1C(=O)CN1CC[C@H](Nc2c(F)ccc3ncccc23)C1 [Example 261, (2S,4S)-4-fluoro-1-[2-[(3S)-3-[(6-fluoro-5-quinolyl)amino]pyrrolidin-1-yl]acetyl]pyrrolidine-2-carbonitrile] | 2 | 3940 | 6570 | 1170 | 9420 | 20800 |  |  |  |  |  |  |  | 
2 | Cc1ccc2ncccc2c1NC1CCN(CC(=O)N2CCC[C@H]2C#N)CC1 [Example 122, (S)-1-(2-(4-((6-methylquinolin-5-yl)amino)piperidin-1-yl)acetyl)pyrrolidine-2-carbonitrile] |  |  |  |  |  |  | 445 | 23700 | > 100000 | > 10000 | > 100000 | > 100000 |  | 
3 | N#C[C@@H]1C[C@H](F)CN1C(=O)CN1CC[C@H](Nc2ccc3ncccc3c2)C1 [Example 250, (2S,4S)-4-fluoro-1-[2-[(3S)-3-(6-quinolylamino)pyrrolidin-1-yl]acetyl]pyrrolidine-2-carbonitrile] | 3.4 | 2160 | 654 | 964 | 3690 | 2280 |  |  |  |  |  |  |  | 
4 | N#C[C@@H]1CCCN1C(=O)CN1CCC(Oc2ccnc3ccccc23)CC1 [Example 118, (S)-1-(2-(4-(quinolin-4-yloxy)piperidin-1-yl)acetyl)pyrrolidine-2-carbonitrile] |  |  |  |  |  |  | 2.34 | 1040 | 10200 |  | > 100000 | 85400 | No inhibition** | 
5 | N#C[C@@H]1C[C@H](F)CN1C(=O)CN1CC[C@H](Nc2cncc3ccoc23)C1 [Example 28, (2S,4S)-4-fluoro-1-(2-((S)-3-(furo[3,2-c]pyridin-7-ylamino)pyrrolidin-1-yl)acetyl)pyrrolidin-2-carbonitrile] |  |  |  |  |  |  | 1.82 | 6600 | 346 | 2630 | 8240 | 18600 |  | 
6 | N#C[C@@H]1C[C@H](F)CN1C(=O)CN1CCC(Oc2nccc3ccccc23)CC1 [Example 419, (2S,4S)-4-fluoro-1-[2-[4-(1-isoquinolyloxy)-1-piperidyl]acetyl]pyrrolidine-2-carbonitrile] | 8.1 | 1100 | 2020 | > 10000 | 23000 | 9390 |  |  |  |  |  |  |  | 
7 | N#C[C@@H]1C[C@H](F)CN1C(=O)CN1CCC(Nc2ccnc3ccc(F)cc23)CC1 [Example 337, (2S,4S)-4-fluoro-1-[2-[4-[(6-fluoro-4-quinolyl)amino]-1-piperidyl]acetyl]pyrrolidine-2-carbonitrile] | 7.8 | 2540 | 571 | 8180 | 2290 | 7880 |  |  |  |  |  |  |  | 
8 | N#C[C@@H]1C[C@H](F)CN1C(=O)CN1CCC(Oc2ccc3cnccc3c2)CC1 [Example 422, (2S,4S)-4-fluoro-1-[2-[4-(6-isoquinolyloxy)-1-piperidyl]acetyl]pyrrolidine-2-carbonitrile] | 11.4 | 1410 | 1220 | > 10000 | 10300 | 6420 |  |  |  |  |  |  |  | 
9 | Cc1ccc(N[C@H]2CCN(CC(=O)N3CCC[C@H]3C#N)C2)c2cccnc12 [Example 242, (2S)-1-[2-[(3S)-3-[(8-methyl-5-quinolyl)amino]pyrrolidin-1-yl]acetyl]pyrrolidine-2-carbonitrile] | 1.7 | 8440 | 1700 | > 10000 | 19300 | 11000 |  |  |  |  |  |  |  | 
10 | N#C[C@@H]1CCCN1C(=O)CN1CC[C@H](Oc2ncnc3sccc23)C1 [Example 68, (S)-1-(2-((S)-3-(thieno[2,3-d]pyrimidin-4-yloxy)pyrrolidin-1-yl)acetyl)pyrrolidine-2-carbonitrile] |  |  |  |  |  |  | 7.96 | > 100000 | 3730 | > 1000 | > 100000 | > 100000 |  | 
11 | N#C[C@@H]1C[C@H](F)CN1C(=O)CN1CCC(Nc2cccc3ncccc23)CC1 [Example 113, (2S,4S)-4-fluoro-1-(2-(4-(quinolin-5-ylamino)piperidin-1-yl)acetyl)pyrrolidine-2-carbonitrile] |  |  |  |  |  |  | 1.65 | 2930 | 342 |  | 3970 | 2410 |  | 20
12 | N#C[C@@H]1CCCN1C(=O)CN1CC[C@H](NC(=O)c2coc3ccc(F)cc23)C1 [Example 43, N—((S)-1-(2-((S)-2-cyanopyrrolidin-1-yl)-2-oxoethyl)pyrrolidin-3-yl)-5-fluorobenzofuran-3-carboxamide] |  |  |  |  |  |  | 9.94 | 8350 | 3370 |  | > 100000 | 44700 |  | 0.2
13 | N#C[C@@H]1CC(F)(F)CN1C(=O)CN1CC[C@H](Nc2cccc(-c3ccccc3)c2)C1 [Example 16, (S)-1-(2-((S)-3-([1,1′-biphenyl]-3-ylamino)pyrrolidin-1-yl)acetyl)-4,4-difluoropyrrolidine-2-carbonitrile] |  |  |  |  |  |  | 2.6 | > 100000 | 84.7 |  | 13700 | 557 |  | 11
14 | N#C[C@@H]1C[C@H](F)CN1C(=O)CN1CC[C@H](Nc2ccc(C(F)(F)F)c3ncccc23)C1 [Example 265, (2S,4S)-4-fluoro-1-[2-[(3S)-3-[[8-(trifluoromethyl)-5-quinolyl]amino]pyrrolidin-1-yl]acetyl]pyrrolidine-2-carbonitrile] | 0.8 | 1730 | 1130 | 1240 | 5420 | > 100000 |  |  |  |  |  |  |  | 
15 | N#C[C@@H]1CCCN1C(=O)CN1CC[C@H](Oc2cccc3[nH]c(=O)ccc23)C1 [Example 75, (S)-1-(2-((S)-3-((2-oxo-1,2-dihydroquinolin-5-yl)oxy)pyrrolidin-1-yl)acetyl)pyrrolidine-2-carbonitrile] |  |  |  |  |  |  | 9.84 | 5250 | 814 | > 1000 | > 100000 | 93200 |  | 
16 | N#C[C@@H]1C[C@H](F)CN1C(=O)CN1CC[C@H](Nc2cnc3ccccc3c2)C1 [Example 249, (2S,4S)-4-fluoro-1-[2-[(3S)-3-(3-quinolylamino)pyrrolidin-1-yl]acetyl]pyrrolidine-2-carbonitrile] | 6 | 1050 | 489 | 1450 | 5770 | > 3000 |  |  |  |  |  |  |  | 
